# According to PubChem BioAssay (NCI):
#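 Five concentrations, 48 hours, 96-well plates. TGI marks complete inhibition of growth.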
# What was measured:
# Assay in all cases: growth of human tumour cells (NCI), 48 h
# DU-145 prostate = tested on: DU-145 prostate
# HCT-15 colon = tested on: HCT-15 colon
# NCI-H23 lung = tested on: NCI-H23 lung
# HCT-116 colon = tested on: HCT-116 colon
# SNB-75 CNS = tested on: SNB-75 CNS
# SNB-19 CNS = tested on: SNB-19 CNS
# MOLT-4 leukemia = tested on: MOLT-4 leukemia
# NCI-H522 lung = tested on: NCI-H522 lung
# NCI/ADR-RES ovarian = tested on: NCI/ADR-RES ovarian
# UO-31 renal = tested on: UO-31 renal
# MALME-3M melanoma = tested on: MALME-3M melanoma
# OVCAR-3 ovarian = tested on: OVCAR-3 ovarian
# OVCAR-4 ovarian = tested on: OVCAR-4 ovarian
# PC-3 prostate = tested on: PC-3 prostate
# SK-MEL-2 melanoma = tested on: SK-MEL-2 melanoma
# UACC-62 melanoma = tested on: UACC-62 melanoma
# IGROV1 ovarian = tested on: IGROV1 ovarian
# T-47D breast = tested on: T-47D breast
# CAKI-1 renal = tested on: CAKI-1 renal
# HL-60(TB) leukemia = tested on: HL-60(TB) leukemia
# SW-620 colon = tested on: SW-620 colon
# ACHN renal = tested on: ACHN renal
# OVCAR-5 ovarian = tested on: OVCAR-5 ovarian
# SF-295 CNS = tested on: SF-295 CNS
# KM12 colon = tested on: KM12 colon
# HS 578T breast = tested on: HS 578T breast
# U251 CNS = tested on: U251 CNS
# TK-10 renal = tested on: TK-10 renal
# HOP-62 NSCLC = tested on: HOP-62 NSCLC
# 786-0 renal = tested on: 786-0 renal
# M14 melanoma = tested on: M14 melanoma
# SR leukemia = tested on: SR leukemia
# RXF 393 renal = tested on: RXF 393 renal
# MDA-MB-435 = tested on: MDA-MB-435
# SF-539 CNS = tested on: SF-539 CNS
# SK-MEL-28 melanoma = tested on: SK-MEL-28 melanoma
# OVCAR-8 ovarian = tested on: OVCAR-8 ovarian
# SK-OV-3 ovarian = tested on: SK-OV-3 ovarian
# UACC-257 melanoma = tested on: UACC-257 melanoma
# NCI-H460 lung = tested on: NCI-H460 lung
# HT29 colon = tested on: HT29 colon
# NCI-H226 lung = tested on: NCI-H226 lung
# SN12C renal = tested on: SN12C renal
# COLO 205 colon = tested on: COLO 205 colon
# MCF7 breast = tested on: MCF7 breast
# HOP-92 NSCLC = tested on: HOP-92 NSCLC
# SK-MEL-5 melanoma = tested on: SK-MEL-5 melanoma
# A549 NSCLC = tested on: A549 NSCLC
# MDA-MB-231 breast = tested on: MDA-MB-231 breast
# SF-268 CNS = tested on: SF-268 CNS
# K-562 leukemia = tested on: K-562 leukemia
smiles,measurement,setting,value
Clc1ccccc1CN1COc2c(cc(Cl)c3cccnc23)C1,TGI,DU-145 prostate,21 µM
same,TGI,HCT-15 colon,10.9 µM
same,TGI,NCI-H23 lung,13.2 µM
same,TGI,HCT-116 colon,15.4 µM
same,TGI,SNB-75 CNS,18.8 µM
same,TGI,SNB-19 CNS,17.2 µM
same,TGI,MOLT-4 leukemia,1.12 µM
same,TGI,NCI-H522 lung,15.7 µM
same,TGI,NCI/ADR-RES ovarian,1.74 µM
same,TGI,UO-31 renal,21.7 µM
same,TGI,MALME-3M melanoma,11.1 µM
same,TGI,OVCAR-3 ovarian,26.4 µM
same,TGI,OVCAR-4 ovarian,14.2 µM
same,TGI,PC-3 prostate,18.7 µM
same,TGI,SK-MEL-2 melanoma,26.1 µM
same,TGI,UACC-62 melanoma,3.8 µM
same,TGI,IGROV1 ovarian,23.7 µM
same,TGI,T-47D breast,> 100 µM
same,TGI,CAKI-1 renal,24 µM
same,TGI,HL-60(TB) leukemia,8.9 µM
same,TGI,SW-620 colon,21 µM
same,TGI,ACHN renal,13.4 µM
same,TGI,OVCAR-5 ovarian,15.1 µM
same,TGI,SF-295 CNS,16.6 µM
same,TGI,KM12 colon,14.6 µM
same,TGI,HS 578T breast,23.4 µM
same,TGI,U251 CNS,14.1 µM
same,TGI,TK-10 renal,26.5 µM
same,TGI,HOP-62 NSCLC,18.7 µM
same,TGI,786-0 renal,18.9 µM
same,TGI,M14 melanoma,21.7 µM
same,TGI,SR leukemia,4 µM
same,TGI,RXF 393 renal,39.6 µM
same,TGI,MDA-MB-435,20.9 µM
same,TGI,SF-539 CNS,10.9 µM
same,TGI,SK-MEL-28 melanoma,25.9 µM
same,TGI,OVCAR-8 ovarian,13.9 µM
same,TGI,SK-OV-3 ovarian,21.2 µM
same,TGI,UACC-257 melanoma,12.3 µM
same,TGI,NCI-H460 lung,27.4 µM
same,TGI,HT29 colon,36.6 µM
same,TGI,NCI-H226 lung,4.09 µM
same,TGI,SN12C renal,0.494 µM
same,TGI,COLO 205 colon,43.2 µM
same,TGI,MCF7 breast,86.5 µM
same,TGI,HOP-92 NSCLC,23 µM
same,TGI,SK-MEL-5 melanoma,5.78 µM
same,TGI,A549 NSCLC,13.6 µM
same,TGI,MDA-MB-231 breast,9.33 µM
same,TGI,SF-268 CNS,46.5 µM
same,TGI,K-562 leukemia,11.9 µM
